Source: ChEMBL document CHEMBL1135650, “Synthesis of classical and nonclassical, partially restricted, linear, tricyclic 5-deaza antifolates” (J Med Chem, 2002)

T1: Dihydrofolate reductase (Pneumocystis carinii, UniProt P16184)
T1 sequence (P16184 whole entry): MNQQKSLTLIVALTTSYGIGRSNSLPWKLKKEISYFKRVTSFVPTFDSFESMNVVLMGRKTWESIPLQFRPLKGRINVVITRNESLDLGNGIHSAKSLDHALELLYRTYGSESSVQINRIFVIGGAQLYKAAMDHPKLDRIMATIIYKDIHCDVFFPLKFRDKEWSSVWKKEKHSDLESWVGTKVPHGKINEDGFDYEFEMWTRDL

T2: Dihydrofolate reductase (Homo sapiens, UniProt P00374)
T2 sequence (P00374 whole entry): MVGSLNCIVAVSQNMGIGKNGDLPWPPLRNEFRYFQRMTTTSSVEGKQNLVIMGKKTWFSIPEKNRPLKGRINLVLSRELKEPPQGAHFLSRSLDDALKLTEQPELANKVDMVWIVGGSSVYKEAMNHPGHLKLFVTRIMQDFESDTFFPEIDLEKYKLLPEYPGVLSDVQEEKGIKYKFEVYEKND

T3: Bifunctional dihydrofolate reductase-thymidylate synthase (Toxoplasma gondii, UniProt Q07422)
T3 sequence (Q07422 whole entry): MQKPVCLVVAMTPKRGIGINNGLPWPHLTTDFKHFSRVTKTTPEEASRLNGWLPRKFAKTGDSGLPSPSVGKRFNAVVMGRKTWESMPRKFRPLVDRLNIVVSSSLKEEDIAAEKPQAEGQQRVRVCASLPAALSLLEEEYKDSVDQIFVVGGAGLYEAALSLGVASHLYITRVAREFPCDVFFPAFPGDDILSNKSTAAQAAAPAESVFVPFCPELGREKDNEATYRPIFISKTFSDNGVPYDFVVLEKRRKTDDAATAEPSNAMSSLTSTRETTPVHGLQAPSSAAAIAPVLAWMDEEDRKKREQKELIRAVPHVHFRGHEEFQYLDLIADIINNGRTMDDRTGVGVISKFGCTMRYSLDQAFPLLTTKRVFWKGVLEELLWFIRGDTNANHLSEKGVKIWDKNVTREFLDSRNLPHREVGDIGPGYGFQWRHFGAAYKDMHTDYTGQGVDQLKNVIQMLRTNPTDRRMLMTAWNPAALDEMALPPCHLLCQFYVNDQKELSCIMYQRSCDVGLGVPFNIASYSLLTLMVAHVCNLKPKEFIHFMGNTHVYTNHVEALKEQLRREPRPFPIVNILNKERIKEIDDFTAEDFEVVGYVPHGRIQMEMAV

T4: Dihydrofolate reductase (Pneumocystis carinii) (UniProt P16184)
T4 sequence (whole entry): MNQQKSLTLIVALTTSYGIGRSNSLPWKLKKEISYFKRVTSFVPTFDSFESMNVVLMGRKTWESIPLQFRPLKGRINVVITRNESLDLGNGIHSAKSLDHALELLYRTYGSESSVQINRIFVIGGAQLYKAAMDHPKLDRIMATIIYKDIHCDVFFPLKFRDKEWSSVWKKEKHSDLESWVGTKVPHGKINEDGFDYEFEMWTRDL


Columns and labels:
[1] = Kinetic constant Vmax relative to aminopterin; format: ADME
[2] = system: Panel leukemia (Carcinoma cell lines); experiment: In vitro inhibitory activity against the growth of tumor cells in leukemia cells;Value ranges from (10e-6 to 10e-7); format: functional; settings: Homo sapiens
[3] = Concentration required to decrease cell growth by 50% in methotrexate-resistant CCRF-CEM human leukemia subline (R1); format: functional, cell-based
[4] = Concentration required to decrease cell growth by 50% in methotrexate-resistant CCRF-CEM human leukemia subline (R2); format: functional, cell-based
[5] = Concentration required to decrease cell growth by 50% in methotrexate-resistant CCRF-CEM human leukemia subline (R30dm); format: functional, cell-based
CCRF-CEM = experiment: Concentration required to decrease cell growth by 50% in CCRF-CEM human leukemia cell line; format: functional, cell-based
Dihydrofolate reductase [6] = biological target: T1, Dihydrofolate reductase
Description: Inhibitory activity against pneumocystis carinii Dihydrofolate reductase

Dihydrofolate reductase [7] = biological target: T2, Dihydrofolate reductase
Description: Inhibitory activity against recombinant human Dihydrofolate reductase

[8] = biological target: T3, Bifunctional dihydrofolate reductase-thymidylate synthase
Description: Inhibitory activity against Toxoplasma gondii (tg) Dihydrofolate reductase (DHFR)

[9] = Kinetic parameter Vmax of the compound; format: ADME
[10] = biological target: T4, Dihydrofolate reductase (Pneumocystis carinii); experiment: Percent Inhibition activity against pneumocystis carinii Dihydrofolate reductase; settings: concentration not given here
[11] = Selectivity ratio as the ratio of IC50 value against recombinant human (rh) DHFR to that of Escherichia coli (ec) DHFR.; format: functional
[12] = Selectivity ratio as the ratio of IC50 value against recombinant human (rh) DHFR to that of Toxoplasma gondii (tg) DHFR.; format: functional
[13] = Selectivity ratio as the ratio of IC50 value against recombinant human (rh) DHFR to that of pneumocystis carinii (pc ) DHFR.; format: functional
[14] = substrate: Nc1nc(N)c2cc3c(nc2n1)CCN(Cc1ccc(C(=O)N[C@@H](CCC(=O)O)C(=O)O)cc1)C3; experiment: (§1) Ability to act as a substrate for human folyglutamate synthetase (FPGS)
[15] = substrate: Nc1nc(N)c2nc(CNc3ccc(C(=O)N[C@@H](CCC(=O)O)C(=O)O)cc3)cnc2n1; experiment: as §1

Row | Molecule | GI50 [2] [nM] | IC50 (Dihydrofolate reductase [6]) [nM] | IC50 (Dihydrofolate reductase [7]) [nM] | IC50 [8] [nM] | also measured
1 | Nc1nc(N)c2cc3c(nc2n1)CCN(Cc1ccc(C(=O)N[C@@H](CCC(=O)O)C(=O)O)cc1)C3 | 1000 | 1800 | 5400 | – | Vmax rel [1]: 1.07; EC50 [3]: > 10000 nM; EC50 [4]: > 10000 nM; EC50 [5]: 1900 nM; EC50 (CCRF-CEM): 771 nM
2 | Nc1nc(N)c2cc3c(nc2n1)CCN(Cc1ccc(Cl)cc1Cl)C3 | – | 4000 | 1300 | 2100 | –
3 | Nc1nc(N)c2nc(CNc3ccc(C(=O)N[C@@H](CCC(=O)O)C(=O)O)cc3)cnc2n1 [AMINOPTERIN] | – | – | – | – | Vmax [9]: 1
4 | Nc1nc(N)c2cc3c(nc2n1)CCN(Cc1ccccc1)C3 | 1000 | 16000 | 32000 | 1400 | –
5 | Nc1nc(N)c2cc3c(nc2n1)CCN(C(=O)OCc1ccccc1)C3 | 1000 | > 15000 | 30000 | 22000 | inhibition [10]: 35%; Ratio [11]: 10; Ratio [12]: 1.3
6 | CN(Cc1cnc2nc(N)nc(N)c2n1)c1ccc(C(=O)N[C@@H](CCC(=O)O)C(=O)O)cc1 [METHOTREXATE] | – | – | – | – | Vmax [1]: 0.82; EC50 [4]: 1700 nM; EC50 [5]: 16 nM; EC50 (CCRF-CEM): 12 nM
7 | Nc1nc(N)c2cc3c(nc2n1)CCN(Cc1ccc(Cl)c(Cl)c1)C3 | – | 5000 | > 26000 | 5100 | Ratio [11]: > 8.6; Ratio [13]: > 5.2; Ratio [12]: > 5
8 | COc1ccc(CN2CCc3nc4nc(N)nc(N)c4cc3C2)cc1 | – | > 15000 | 27000 | 2900 | inhibition [10]: 35%
9 | COc1cc(CN2CCc3nc4nc(N)nc(N)c4cc3C2)cc(OC)c1 | – | 14000 | 22000 | 2700 | –
10 | Folylpolyglutamate synthase, mitochondrial (Homo sapiens), Q05932 (protein) MSRARSHLRAALFLAAASARGITTQVAARRGLSAWPVPQEPSMEYQDAVRMLNTLQTNAGYLEQVKRQRGDPQTQLEAMELYLARSGLQVEDLDRLNIIHVTGTKGKGSTCAFTECILRSYGLKTGFFSSPHLVQVRERIRINGQPISPELFTKYFWRLYHRLEETKDGSCVSMPPYFRFLTLMAFHVFLQEKVDLAVVEVGIGGAYDCTNIIRKPVVCGVSSLGIDHTSLLGDTVEKIAWQKGGIFKQGVPAFTVLQPEGPLAVLRDRAQQISCPLYLCPMLEALEEGGPPLTLGLEGEHQRSNAALALQLAHCWLQRQDRHGAGEPKASRPGLLWQLPLAPVFQPTSHMRLGLRNTEWPGRTQVLRRGPLTWYLDGAHTASSAQACVRWFRQALQGRERPSGGPEVRVLLFNATGDRDPAALLKLLQPCQFDYAVFCPNLTEVSSTGNADQQNFTVTLDQVLLRCLEHQQHWNHLDEEQASPDLWSAPSPEPGGSASLLLAPHPPHTCSASSLVFSCISHALQWISQGRDPIFQPPSPPKGLLTHPVAHSGASILREAAAIHVLVTGSLHLVGGVLKLLEPALSQ | – | – | – | – | Km [14]: 27.3 µM; Km [15]: 2.15 µM
